Columns and labels:
LoVo-Dox = experiment: Inhibition of cells growth by colorimetric (SRB) assay, LoVo-Dox
Method in brief: (§1)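 Human tumour cells in RPMI 1640 with 10% FBS were seeded at 5×10^3 cells/well, allowed to attach for 18 h, then exposed to samples at 10 to 10^−8 μg/ml for 48 h. Growth was measured by SRB staining after TCA fixation, with absorbance read at 490 nm in triplicate wells.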

A-549 = experiment: Inhibition of cells growth by colorimetric (SRB) assay, A-549
Method in brief: as §1

IGROV-ET = experiment: Inhibition of cells growth by colorimetric (SRB) assay, IGROV-ET
Method in brief: as §1

SK-OV-3 = experiment: Inhibition of cells growth by colorimetric (SRB) assay, SK-OV-3
Method in brief: as §1

PANC-1 = experiment: Inhibition of cells growth by colorimetric (SRB) assay, PANC-1
Method in brief: as §1

DU-145 = experiment: Inhibition of cells growth by colorimetric (SRB) assay, DU-145
Method in brief: as §1

LoVo = experiment: Inhibition of cells growth by colorimetric (SRB) assay, LoVo
Method in brief: as §1

HMEC1 = experiment: Inhibition of cells growth by colorimetric (SRB) assay, HMEC1
[1] = as above; details: human, HMEC1 cells, LC50 H-MEC-1, SRB assay, 48 hours exposure
IGROV-1 = experiment: Inhibition of cells growth by colorimetric (SRB) assay, IGROV-1
Method in brief: as §1

SK-BR-3 = experiment: Inhibition of cells growth by colorimetric (SRB) assay, SK-BR-3
Method in brief: as §1

HT-29 = experiment: Inhibition of cells growth by colorimetric (SRB) assay, HT-29
Method in brief: as §1

SK-MEL-28 = experiment: Inhibition of cells growth by colorimetric (SRB) assay, SK-MEL-28
Method in brief: as §1

LNCaP = experiment: Inhibition of cells growth by colorimetric (SRB) assay, LNCaP
Method in brief: as §1

K-562 = experiment: Inhibition of cells growth by colorimetric (SRB) assay, K-562
Method in brief: as §1

COc1ccc2nc3c(cc2c1)c(-c1ccnc(SC)n1)c1ccnc(N)n13 [Compound 18b]
≥ 25.7 µM: GI50 (LoVo-Dox; Homo sapiens, 48 h, read-out: GI50 LOVO-DOX, SRB assay, 48 hours exposure) | CC50 (LoVo-Dox; Homo sapiens, 48 h, read-out: LC50 LOVO-DOX, SRB assay, 48 hours exposure) | GI50 (A-549; Homo sapiens, A549, 48 h, read-out: GI50 A-549, SRB assay, 48 hours exposure) | CC50 (A-549; Homo sapiens, A549, 48 h, read-out: LC50 A-549, SRB assay, 48 hours exposure) | GI50 (IGROV-ET; Homo sapiens, 48 h, read-out: GI50 IGROV-ET, SRB assay, 48 hours exposure) | CC50 (IGROV-ET; Homo sapiens, 48 h, read-out: LC50 IGROV-ET, SRB assay, 48 hours exposure) | GI50 (SK-OV-3; Homo sapiens, SK-OV-3, 48 h, read-out: GI50 SKOV-3, SRB assay, 48 hours exposure) | CC50 (SK-OV-3; Homo sapiens, SK-OV-3, 48 h, read-out: LC50 SKOV-3, SRB assay, 48 hours exposure) | CC50 (PANC-1; Homo sapiens, PANC-1, 48 h, read-out: LC50 PANC-1, SRB assay, 48 hours exposure) | GI50 (DU-145; Homo sapiens, DU-145, 48 h, read-out: GI50 DU-145, SRB assay, 48 hours exposure) | CC50 (DU-145; Homo sapiens, DU-145, 48 h, read-out: LC50 DU-145, SRB assay, 48 hours exposure) | GI50 (LoVo; Homo sapiens, LoVo, 48 h, read-out: GI50 LOVO, SRB assay, 48 hours exposure) | CC50 (LoVo; Homo sapiens, LoVo, 48 h, read-out: LC50 LOVO, SRB assay, 48 hours exposure) | CC50 (IGROV-1; Homo sapiens, IGROV-1, 48 h, read-out: LC50 IGROV, SRB assay, 48 hours exposure) | GI50 (SK-BR-3; Homo sapiens, SK-BR-3, 48 h, read-out: GI50 SK-BR-3, SRB assay, 48 hours exposure) | CC50 (SK-BR-3; Homo sapiens, SK-BR-3, 48 h, read-out: LC50 SK-BR-3, SRB assay, 48 hours exposure) | GI50 (HT-29; Homo sapiens, HT-29, 48 h, read-out: GI50 HT-29, SRB assay, 48 hours exposure) | CC50 (HT-29; Homo sapiens, HT-29, 48 h, read-out: LC50 HT-29, SRB assay, 48 hours exposure) | GI50 (SK-MEL-28; Homo sapiens, SK-MEL-28, 48 h, read-out: GI50 MEL-28, SRB assay, 48 hours exposure) | CC50 (SK-MEL-28; Homo sapiens, SK-MEL-28, 48 h, read-out: LC50 MEL-28, SRB assay, 48 hours exposure) | CC50 (LNCaP; Homo sapiens, LNCaP, 48 h, read-out: LC50 LN-caP, SRB assay, 48 hours exposure) | GI50 (K-562; Homo sapiens, K562, 48 h, read-out: GI50 K-562, SRB assay, 48 hours exposure) | CC50 (K-562; Homo sapiens, K562, 48 h, read-out: LC50 K-562, SRB assay, 48 hours exposure)
1.69E−05: TGI H-MEC-1 (HMEC1; SRB assay, 48 hours exposure, in M (unit assumed))
12.2 µM: GI50 (HMEC1; Homo sapiens, HMEC-1, 48 h, read-out: GI50 H-MEC-1, SRB assay, 48 hours exposure)
16.6 µM: GI50 (LNCaP; Homo sapiens, LNCaP, 48 h, read-out: GI50 LN-caP, SRB assay, 48 hours exposure)
23.3 µM: CC50 at 48 h [1]
10.3 µM: GI50 (PANC-1; Homo sapiens, PANC-1, 48 h, read-out: GI50 PANC-1, SRB assay, 48 hours exposure)
20.8 µM: GI50 (IGROV-1; Homo sapiens, IGROV-1, 48 h, read-out: GI50 IGROV, SRB assay, 48 hours exposure)
2.57E−05: TGI LOVO-DOX (LoVo-Dox; SRB assay, 48 hours exposure) | TGI A-549 (A-549; SRB assay, 48 hours exposure) | TGI IGROV-ET (IGROV-ET; SRB assay, 48 hours exposure) | TGI SKOV-3 (SK-OV-3; SRB assay, 48 hours exposure) | TGI PANC-1 (PANC-1; SRB assay, 48 hours exposure) | TGI DU-145 (DU-145; SRB assay, 48 hours exposure) | TGI LOVO (LoVo; SRB assay, 48 hours exposure) | TGI IGROV (IGROV-1; SRB assay, 48 hours exposure) | TGI SK-BR-3 (SK-BR-3; SRB assay, 48 hours exposure) | TGI HT-29 (HT-29; SRB assay, 48 hours exposure) | TGI MEL-28 (SK-MEL-28; SRB assay, 48 hours exposure) | TGI LN-caP (LNCaP; SRB assay, 48 hours exposure) | TGI K-562 (K-562; SRB assay, 48 hours exposure)

From patent US7772241B2, “Variolin derivatives and their use as antitumor agents” (Pharma Mar S.A., priority 2001, dated 2010)
